Data taken from US6946132B2, “Vaccine compositions and methods useful in inducing immune protection against arthritogenic peptides involved in the pathogenesis of rheumatoid arthritis” (The Regents of the University of California, priority 1994, dated 2005).

B1: rdnaJ: recombinant E. coli dnaJ heat shock protein, expressed and affinity purified, 41 kD (protein, UniProt P08622 2-376, looked up)
Chaperone protein DnaJ: AKQDYYEILGVSKTAEEREIRKAYKRLAMKYHPDRNQGDKEAEAKFKEIKEAYEVLTDSQKRAAYDQYGHAAFEQGGMGGGGFGGGADFSDIFGDVFGDIFGGGRGRQRAARGADLRYNMELTLEEAVRGVTKEIRIPTLEECDVCHGSGAKPGTQPQTCPTCHGSGQVQMRQGFFAVQQTCPHCQGRGTLIKDPCNKCHGHGRVERSKTLSVKIPAGVDTGDRIRLAGEGEAGEHGAPAGDLYVQVQVKQHPIFEREGNNLYCEVPINFAMAALGGEIEVPTLDGRVKLKVPGETQTGKLFRMRGKGVKSVRGGAQGDLLCRVVVETPVGLNERQKQLLQELQESFGGPTGEHNSPRSKSFFDGVKKFFDDLTR

What was measured:
[1] = test system: lymphocytes from patients with early stage RA; experiment: Proliferation of lymphocytes from RA patients exposed to RA susceptibility sequence peptides (stimulation index); format: cell-based, human; details: for response of RA patient blood lymphocytes to wild-type peptide (dnaJp1) relative to response to mutant peptide (dnaJpV): PBL's of RA patients
Excerpt: FIG. 2 quantifies proliferation of cultured lymphocytes from adult RA and juvenile RA (JRA) patients following exposure of the cells to synthetic dnaJp1 (amino acid sequence […]; SEQ. ID. No. 4) or a mutant dnaJ peptide having the amino acid sequence […] (“dnaJpV”; SEQ. ID. No. 5). The control culture tested consisted of lymphocytes obtained from adults without RA (“normals”). The responses shown by bars in the graph of FIG. 2 are expressed in terms of a lymphocyte stimulation index; i.e., (CPM detected in cultures with dnaJ)/(CPM detected in cultures without dnaJ).
(§1) Lymphocytes from patients with early untreated rheumatoid arthritis (RA) were obtained from blood (peripheral blood lymphocytes, or “PBL's”) for from synovial fluids using standard aseptic techniques. The cells were incubated for 7 days with purified recombinant E. coli dnaJ (10 μg/ml, obtained as described in Example I) in RPMI 1640 medium supplemented with 10% prescreened human AB type serum. Lymphocytes from 10 control subjects (i.e., persons without RA) were treated similarly. Proliferation during the last 16 hours of culture was expressed as a stimulation index=cpm in cultures with dnaJ/cpm in cultures without dnaJ.
Lymphocytes from patients with early stage RA were contacted with one of two RA susceptibility sequence peptides according to the protocol described in Example II. The peptides used were either a 15 amino acid synthetic peptide having the wild-type sequence […] or a 15 amino acid synthetic mutant peptide having the sequence […].

[2] = test system: anti-dnaJ antibodies in sera from patients with early stage RA; experiment: Inhibition of antibody binding to dnaJ (ELISA, sera preincubated with peptide); design: species or system human; details: sera diluted 1:100, preincubated overnight at 4° C. with peptide; % inhibition; FIG. 3
Procedure: FIG. 3 depicts the results of an inhibition study for inhibition of the activity of anti-dnaJ antibodies produced in separate sera samples from 51 early stage RA patients by intact dnaJ. The percent inhibition shown by bars in the graph of FIG. 3 is expressed in terms of the formula: % inhibition=100 I-OD460 with rdnaJ)(OD460 without rdnaJ) The control sera were obtained from humans without RA.
Microtiter plates were coated with recombinant dnaJ (10 μg/ml). Either sera obtained from patients with early stage RA or sera from control subjects were diluted 1:100 in borate buffered saline. Half of each specimen was incubated overnight at 4° C. with the wild-type dnaJ peptide described in Example III. Then the paired serum specimens were added to the dnaJ coated plates.
After 4 hours incubation, antibody binding was detected with alkaline phosphatase labelled goat anti-human IgG; levels of detected antibody binding were determined according to the following formula: % inhibition=100 (1-OD460with wild-type peptide)(OD460without wild-type peptide)

[3] = test system: purified HLA MHC Class II epitopes; experiment: ELISA binding of biotinylated dnaJ peptides to immobilized HLA molecules; design: species or system human; details: ELISA absorption at 405 nm; FIG. 5
Excerpt: FIG. 5 is a table comparing the binding efficiencies of several dnaJ peptides for purified HLA MHC Class II epitopes. Binding was detected by ELISA between biotinylated dnaJ peptides and immobilized HLA molecules. The results are expressed in the table as absorption units at 405 nm. The peptides tested were: dnaJp1 (SEQ. ID. No. 4), dnaJpV (SEQ. ID. No. 5), dnaJp2 (SEQ. ID. No. 6), S1 (SEQ. ID. No. 7) and S6 (SEQ. ID. No. 8). S1 and […] are synthetic peptides whose amino acid sequence corresponds to the sequence of known HLA DR antigens.

[4] = test system: lymphocytes from patients with early untreated rheumatoid arthritis; experiment: Proliferation of lymphocytes from early stage RA patients exposed to rdnaJ (stimulation index); format: cell-based, human; details: rdnaJ 10 μg/ml, 7 days, FIG. 1
Excerpt: FIG. 1 quantifies proliferation of cultured lymphocytes from 22 patients with early, untreated RA (“early stage” RA) following exposure of the cells to intact bacterial dnaJ protein. The responses shown by bars in the graph of FIG. 1 are expressed in terms of a lymphocyte stimulation index; i.e., (CPM detected in cultures with dnaJ)/(CPM detected in cultures without dnaJ). “CPM” refers to counts-per-minute. The control culture tested consisted of lymphocytes obtained from humans without RA.
as §1

Molecule	response of RA patient PBL's to wild-type peptide relative to response of lymphocytes from control subjects to wild-type peptide ([1]; FIG. 2)	response of RA patient blood lymphocytes to wild-type peptide (dnaJp1) relative to response to mutant peptide (dnaJpV) ([1]; FIG. 2) [times]	response of RA patient blood lymphocytes to wild-type peptide (dnaJp1) relative to response to mutant peptide (dnaJpV) ([1]; FIG. 2, listed as wild-type peptide)	inhibition of antibody binding to rdnaJ in RA sera relative to inhibition in control sera [2] [times]	binding to HLA MHC Class II molecule epitopes relative to human HLA Dw4 peptides (S1 and S6) [3] [times]	proliferation response of PBL's relative to response of control subject lymphocytes ([4]; PBL's from 14 early stage RA patients)	proliferation response of synovial fluid lymphocytes relative to response of control subject lymphocytes ([4]; synovial fluid lymphocytes from 8 early stage RA patients)
QKRAAYDQYGHAAFE (Synthetic dnaJp1)	approximately 9 times	~10	more than 5 times	~3	≥ 100	–	–
B1	–	–	–	–	–	approximately 3.6 times	approximately 2.3 times
